Experimental data reported in PubChem BioAssay (NCI).
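Where inhibition never reached the appropriate level, the endpoint shown equals the highest concentration tested. Otherwise, values were interpolated linearly from a five-concentration, 48-hour dose response in 96-well plates. GI50: concentration for 50% inhibition of growth. TGI marks complete inhibition of growth.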

Key:
Test in all cases: NCI anticancer screen, dose series, 48 h
SR leukemia = tested on: SR leukemia
UO-31 renal = tested on: UO-31 renal
BT-549 breast = tested on: BT-549 breast
MOLT-4 leukemia = tested on: MOLT-4 leukemia
HCT-116 colon = tested on: HCT-116 colon
SK-MEL-2 melanoma = tested on: SK-MEL-2 melanoma
A549 NSCLC = tested on: A549 NSCLC
SF-539 CNS = tested on: SF-539 CNS
KM12 colon = tested on: KM12 colon
SNB-75 CNS = tested on: SNB-75 CNS

Row | SMILES | GI50 (SR leukemia) [µM] | TGI (SR leukemia) [µM] | GI50 (UO-31 renal) [µM] | TGI (UO-31 renal) [µM] | GI50 (BT-549 breast) [µM] | TGI (BT-549 breast) [µM] | GI50 (MOLT-4 leukemia) [µM] | TGI (MOLT-4 leukemia) [µM] | GI50 (HCT-116 colon) [µM] | TGI (HCT-116 colon) [µM] | GI50 (SK-MEL-2 melanoma) [µM] | TGI (SK-MEL-2 melanoma) [µM] | GI50 (A549 NSCLC) [µM] | TGI (A549 NSCLC) [µM] | GI50 (SF-539 CNS) [µM] | TGI (SF-539 CNS) [µM] | GI50 (KM12 colon) [µM] | TGI (KM12 colon) [µM] | GI50 (SNB-75 CNS) [µM] | TGI (SNB-75 CNS) [µM]
1 | CN1CCC(n2cnc(-c3ccc(F)cc3)c2-c2ccnc(NCCO)n2)CC1 | 23.7 | > 25 | 13.6 | > 25 | > 25 | > 25 | > 25 | > 25 | 14.5 | > 25 | > 25 | > 25 | 11.9 | > 25 | > 25 | > 25 | 16.7 | > 25 | 12.3 | > 25
2 | COc1cc(/C=C/c2cc(O)c3cc(C(C)=O)c(=O)oc3c2)cc2c1O[C@]1(C)CC[C@@H](O)C(C)(C)[C@H]1C2 |  | > 100 |  | > 26.2 |  | > 61.2 |  | > 26.4 | > 19.7 | > 52.3 |  | > 45.8 | > 24.2 | > 53.2 |  | > 23.6 | > 20.8 | > 39.3 |  | > 48
3 | CCCC(=O)OC1C(C(O)CO)OC2OC(C)(C)OC21 (stereo unspecified) |  | > 100 |  | > 100 |  | > 100 |  | > 100 |  | > 100 |  | > 100 |  | > 100 |  | > 100 |  | > 100 |  | > 100
4 | Cc1ccccc1[P+](Cc1ccccc1)(c1ccccc1)c1ccccc1 | 1.6 | 15.7 | 14.2 | 69.2 | 2.4 | 11.5 | 3.58 | 17.6 | 1.92 | > 100 | 2.67 | 6.65 | 3.07 | > 100 | 2.34 | 24.7 | 1.12 | 15.1 | 2.14 | 20.2
5 | O=C(NCCO)Nc1ccc(-c2nc(N3CCOCC3)c3cccn3n2)cc1 | 0.232 | > 100 | 0.0573 | 1.63 | 0.0729 | 3.6 | 0.217 | > 49.2 | 1.85 | > 100 | 0.256 | 5.09 | 2.07 | 18.3 | 0.315 | 5.72 | 0.579 | > 100 | 0.0445 | 1.08
6 | COc1cccc(-n2ncc3c(N/N=C/c4ccc(C(=O)NCCN(C)C)cc4)ncnc32)c1 | 2.29 | > 13.9 | 1.64 | 5.88 | 4.33 | 8.1 | 4.48 | 11 | 2.76 | 6.21 | > 9.86 | > 13.9 | 3.33 | 6.91 | 3.78 | 7.79 | 1.36 | 4.67 | 1.05 | 5.13
7 | COc1cc2c(c(OC)c1)C1c3ccccc3NC(=O)N1CC2 (stereo unspecified) | 2.77 | > 100 | 2.81 | 85.4 | 6.24 | 80.7 | 3.99 | > 100 | 3.69 | > 100 | 2.85 | 91.4 | 4.59 | > 100 | 1.7 | 7.26 | 4.95 | > 100 | 2.69 | > 100
8 | Cc1ccc(N=Nc2c(O)c(C(=O)O)cc3ccccc23)cc1C |  | > 100 |  | > 100 |  | > 100 |  | > 100 |  | > 100 |  | > 100 |  | > 100 |  | > 100 |  | > 100 |  | > 100
9 | OC(c1cc(-c2ccccc2)nc2ccc(Cl)cc12)C1CCCCN1 (stereo unspecified) | 1.88 | 5.44 | 1.73 | 4.19 | 5.82 | 18.7 | 2.51 | 6.2 | 1.76 | 3.21 | 2.45 | 5.02 | 3.07 | 8.21 | 1.84 | 3.52 | 1.94 | 3.74 | 1.83 | 5.74
10 | O=c1cc(-c2ccccc2)[nH]c2ccccc12 |  | > 100 | 3.28 | > 100 |  | > 52.1 | 0.703 | > 100 | 0.547 | > 100 | > 100 | > 100 | 1.88 | > 100 | 0.412 | 9.66 | 0.464 | > 100 | 0.542 | > 100
11 | O=C(NCCCCCCNC(=O)n1cc(F)c(=O)[nH]c1=O)NCCCOCCOCCOCCOCCOCCOCCOCCOCCOCCOCCOCCOCCOCCOCCOCCOCCOCCOCCOCCOCCOCCCNC(=O)C(O)C(O)C(O)C(O)CO (stereo unspecified) |  | > 100 |  | > 100 |  | > 100 |  | > 100 |  | > 100 |  | > 100 |  | > 100 |  | 43.7 |  | > 100 |  | > 100
12 | COc1ccc2sc3c(NCCCN(C)C)nc4ccccc4c3c(=O)c2c1 | 1.68 | 5.99 | 1.47 | 2.84 | 5.24 | 18.1 | 1.71 | 3.56 | 1.57 | 3.01 | 1.76 | 3.32 | 1.75 | 3.74 | 1.63 | 3.06 | 1.68 | 3.18 | 1.42 | 2.8
13 | CC[C@@H](C(=O)O)C1CC[C@H](C)C([C@@H](C)[C@H](O)[C@H](C)C(=O)[C@H](CC)C2O[C@]3(C=C[C@@H](O)[C@]4(CC[C@@](C)(C5CC[C@](O)(CC)[C@H](C)O5)O4)O3)[C@H](C)C[C@@H]2C)O1 (stereo partly specified) | 0.0411 | 14 | 0.784 | 15.9 | 0.184 | 3.19 | 1.47 | 5.92 | 0.369 | 16.6 | 0.981 | 7.53 | 0.282 | 14.1 | 0.309 | 3.9 | 0.893 | 11.9 | 0.774 | 4.18
14 | COc1ccc(/C(C#N)=C/c2ccccc2OC)cc1 | 2.95 | 15.1 | 17 | > 100 | 5.64 | > 100 | 5.49 | > 100 | 4.46 | > 100 | 4.68 | 32.9 | 6.19 | > 100 | 20.5 | > 100 | 5.04 | > 100 | 4.07 | 32.8
15 | COc1ccc(/C=C2\CCCC3=C2N=C2SC(C)=NN2C3c2ccc(OC)c(OC)c2)cc1OC (stereo unspecified) | 3.66 | > 100 | 5.99 | 43.9 | 7.37 | > 100 | 13.8 | > 100 | 3.26 | 14.3 | 22.2 | 97.1 | 31.8 | > 100 | 8.15 | > 100 | 8.41 | > 100 | 13.7 | 64.2
16 | CC1OC(O[C@@H]2OC=C(C=O)[C@@]3(O)CC[C@H](C)[C@@H]23)C(O)C(O)C1O (stereo partly specified) |  | > 100 |  | > 100 |  | > 100 |  | > 100 |  | > 100 |  | > 100 |  | > 100 |  | > 100 |  | > 100 |  | > 100
17 | CC#C[C@]1(O)CC[C@H]2[C@@H]3CCC4=CC(=O)CCC4=C3[C@@H](c3ccc4c(c3)OCO4)C[C@@]21C | 77.2 | 479 | 49.6 | 218 | 22.3 | 122 | 49.5 | > 1000 | 31.2 | 126 | 111 | 291 | 93.4 | 875 | 89.2 | 274 | 112 | 299 | 42.8 | 521
18 | O=C1c2cccnc2C(=O)c2nc3cc(N4CCN(C5CC5)CC4)ccc3nc21 | 0.322 | > 20.1 | 0.259 | 1.92 | 1.04 | 2.38 | 2.4 | 5.62 | 0.789 | 7.12 | 1.61 | 4.22 | 0.213 | 0.669 | 0.442 | 1.66 | 1.25 | 5.11 | 0.147 | 1.37
19 | Cn1cccc1-c1cc(-c2cccs2)nc(N)c1C#N | 5.39 | 68.2 | > 100 | > 100 | > 100 | > 100 | > 100 | > 100 | > 100 | > 100 | > 100 | > 100 | > 100 | > 100 | > 100 | > 100 | > 100 | > 100 | 46 | > 100
